# Legend:
# mice with CKD = test: CKD-induced muscle wasting in mice (subtotal nephrectomy); type: in vivo
# Experimental: FIGS. 21A-21G provides a small molecule inhibitor of Stat3 activation, C188-9, that blocks CKD-induced muscle wasting. FIG. 21A. Sham or CKD mice were treated with C188-9 or D5W (diluent) for 14 days. Representative western blots of p-Stat3, Stat3 and GAPDH from lysates of gastrocnemius muscles are shown (n=8 mice/group). FIG. 21B. Differences in body weights of pair-fed, sham or CKD mice treated with C188-9 or D5W at baseline and after 7 or 14 days of treatment (*p<0.05 vs. D5W sham). FIGS. 21C & 21D. Average weights of mixed fiber gastrocnemius and tibialis anterior (TA) muscles from both legs (n=7 mice/group). FIG. 21E. Cryosections of TA muscles were immunostained with anti-laminin to identify the muscle basement membrane. The myofiber areas were measured and the myofiber size distribution was calculated from the areas of ˜500 myofibers assessed by an observer blinded to treatment group (n=4 pairs of mice). FIG. 21F. Muscle force of each mouse studied in FIG. 3C was measured on four consecutive days (Experimental Procedures; n=7 mice/group). G&H. At 2 weeks of C188-9 or D5W treatment, protein synthesis (FIG. 21G) and degradation (FIG. 21H) were measured (n=8 pairs of mice; *p<0.05 vs. D5W). Values are means±SEM.
# FIG. 23A. Representative western blots of the indicated proteins from lysates of gastrocnemius muscles of control (Stat3flox/flox) or Stat3 KO sham or CKD mice. FIGS. 23B & 23C. mRNAs of myostatin (FIG. 23B) and C/EBPδ in muscles of sham or CKD mice analyzed by RT-PCR (n=4 mice/group; *p<0.05 vs. Stat3flox/flox sham). FIG. 23D. Representative western blots of the indicated proteins in lysates of gastrocnemius muscles of STZ vs. WT control mice (n=5 pairs). FIG. 23E. Sham or CKD mice were treated with C188-9 or D5W (diluent) for 14 days. Representative western blots of indicated proteins from lysates of gastrocnemius muscles are shown (n=8 mice/group). FIGS. 23F & 23G. mRNA levels of myostatin (FIG. 23F) and C/EBPδ (FIG. 23G) analyzed by RT-PCR and corrected for GAPDH (n=3 mice/group: wild-type mice without CKD; sham mice treated with C188-9 or D5W; mice with CKD treated with C188-9 or D5W; *p<0.05 vs. WT non-CKD). Values are means±SEM. FIG. 6. C/EBPδ and myostatin mediate CKD or Stat3-induced muscle wasting. A. Body weights of wild type or homo- or hetero-C/EBPδ KO mice following creation of CKD. Values are expressed as a percentage of basal body weight (mean±SEM; n=9 for WT mice; n=11 for C/EBPδ−/−; n=11 for C/EBPδ+/− mice; *p<0.05 vs. WT CKD). FIG. 23B. Survival was calculated as the percentage of mice surviving at 3 weeks after CKD or after sham surgery (n=20 for WT; n=25 for C/EBPδ−/−; n=21 for C/EBPδ+/−; *p<0.05 vs. C/EBPδ−/− CKD). FIG. 23C. Average weights from both legs of red fiber (soleus) or white fiber (EDL) muscles (mean±SEM; n=10 mice/group; *p<0.05 vs. WT CKD). FIG. 23D. Representative western blots of p-Stat3 and myostatin from muscles of CKD or sham-operated mice of the following groups: C/EBPδ−/−, C/EBPδ+/− or control (WT). FIG. 23E. Cryosections of gastrocnemius muscles from mice that were transfected with lentivirus expressing Stat3C-GPF or GFP and treated with anti-myostatin inhibitor or PBS. The sections were immunostained with p-Smad2/3 (red, lower panel). […] FIG. 23F. GFP-positive areas in myofibers were measured and the mean myofiber sizes of each group are shown (left panel). The percentage of p-Smad2/3 positive nuclei to total nuclei was calculated (right panel; mean±SEM, *p<0.05 vs. GFP/PBS).
# All animal experiments and procedures were approved by the Baylor College of Medicine Institutional Animal Care and Use Committee (IACUC). Subtotal nephrectomy was used to create CKD in mice (Zhang et al., 2011; May et al., 1987). To induce diabetes, 12-week-old Stat3^flox/flox and Stat3 KO mice were injected intraperitoneally with 2 doses of 150 mg/kg/d STZ (Sigma-Aldrich) in 0.1 M citrate buffer (pH 4). Control mice were injected with the citrate buffer. […]
# mice = test: Maximum tolerated dose in mice; type: in vivo, mouse; settings: over 14 days, Tweardy et al, unpublished data
# From the text: Presently, there are no clinically available drugs that directly target Stat3. Small molecule, drug development programs are initiated that target either the Stat3 homodimer interface or the Stat3 SH2 domain; the latter is required for Stat3 binding to phosphotyrosylpeptide ligands located within activated receptor complexes and within the Stat3 homodimer itself. Three candidate compounds (C3, C30 and C188) were identified; some identified single compounds including static (Schust et al., 2006), STA-21 (Song et al., 2005), S31-201 (Siddiquee et al., 2007) or LLL12 (Lin et al., 2010). Regarding LLL12, the evidence for direct inhibition of Stat3 vs. an upstream kinase was not presented. […] Regarding potency, neither the parent compounds identified by others nor derivatives of them are as potent as C188-9 (Bhasin et al., 2008; Zhang et al., 2010). In addition, compounds identified by others that have been tested in mice are not as well tolerated as C188-9 (Lin et al., 2009; Zhang et al., 2010); those compounds have a maximum tolerated dose of 5 mg/kg every 2 or 3 days compared to 100 mg/kg/day over 14 days for C188-9 (Tweardy et al, unpublished data). Thus, C188-9 has promise as a lead for development into a drug that could be administered safely to patients.
# [1] = CKD mice, 6.25 mg/kg subcutaneously daily for 14 days vs. D5W
# [2] = CKD mice, at 2 weeks, EDL muscles
smiles,measurement,setting,value
COc1ccc(S(=O)(=O)Nc2cc(-c3c(O)ccc4ccccc34)c(O)c3ccccc23)cc1 [C188-9],body weights,mice with CKD; [1],significantly greater
same,level of p-Stat3 in muscle,mice with CKD; [1],decreased
same,Akt phosphorylation in muscle,"mice with CKD; CKD mice, 14 days",higher
same,CKD-induced phosphorylation of p-Smad2/3,"mice with CKD; CKD mice, 14 days",blocked
same,grip strength,"mice with CKD; CKD mice, 14 days vs. D5W",improved grip strength
same,C/EBPδ and myostatin proteins in muscle,"mice with CKD; CKD mice, 14 days, gastrocnemius lysates",decreased
same,CKD-stimulated mRNA expressions of C/EBPδ and myostatin,"mice with CKD; CKD mice, RT-PCR",suppressed
same,weights of gastrocnemius and tibialis anterior muscles,"mice with CKD; CKD mice, after 14 days vs. D5W",greater
same,muscle protein degradation,mice with CKD; [2],decreased protein degradation
same,muscle protein synthesis,mice with CKD; [2],improved muscle protein synthesis
same,C/EBPδ or myostatin mRNAs or proteins in muscle,mice with CKD; control mice without CKD,did not change
same,"food intake, body weight, muscle mass or grip strength","mice with CKD; control, wild type mice without CKD",did not significantly affect
same,maximum tolerated dose,mice,100 mg/kg/day

# — patent US11161831B2, “Methods and compositions for treatment of muscle wasting, muscle weakness, and/or cachexia” (Baylor College of Medicine, priority 2013, dated 2021)
